From patent US11981643B1, “Oxoimidazolidine derivatives as anti-tubercular agents” (priority 2023, dated 2024)
Converted amounts (≈) assume the structure as drawn. Where two headings read alike, the source gives them in different places.

Legend:
[1] = system: Mycobacterium tuberculosis H37Rv; assay: Resazurin Microplate Assay (REMA), anti-tubercular activity, H37Rv strain; assay type: cell-based; conditions: 192 h, read-out: Anti-tubercular activity against Mycobacterium tuberculosis, H37Rv (minimum inhibitory concentration, MIC)
[2] = H37Rv strain, ATCC: 25177, REMA, 8 days incubation at 37° C.

SMILES	melting point [°C]	MIC [1, 2] [µg/mL]	MIC ([1]; H37RV) [µg/mL]
CN1/C(=C\c2ccc([N+](=O)[O-])cc2)C(=O)N/C1=N\C(=O)Nc1ccccc1F	150 to 152	–	–
Cc1ccc(/C=C2/C(=O)N/C(=N\C(=O)Nc3ccccc3F)N2C)o1	196 to 198	–	–
CN1/C(=C\c2ccc([N+](=O)[O-])cc2)C(=O)N/C1=N\C(=O)Nc1cccc(F)c1	144 to 146	–	–
Cc1ccc(/C=C2/C(=O)N/C(=N\C(=O)Nc3cccc(F)c3)N2C)o1	188 to 190	–	–
CN1/C(=C\c2ccc([N+](=O)[O-])cc2)C(=O)N/C1=N\C(=O)Nc1ccc(F)cc1	156 to 158	–	–
Cc1ccc(/C=C2/C(=O)N/C(=N\C(=O)Nc3ccc(F)cc3)N2C)o1	186 to 188	–	–
CN1/C(=C\c2ccc(Br)o2)C(=O)N/C1=N\C(=O)Nc1ccc(Cl)cc1Cl	198 to 200	–	–
CN1/C(=C\c2ccc(-c3ccccc3[N+](=O)[O-])o2)C(=O)N/C1=N\C(=O)Nc1ccc(Cl)cc1Cl	206 to 208	–	–
Cc1ccc(/C=C2/C(=O)N/C(=N\C(=S)Nc3cccc(Cl)c3)N2C)o1	158 to 160	–	–
CN1/C(=C\c2ccc(Br)o2)C(=O)N/C1=N\C(=S)Nc1cccc(Cl)c1	140 to 142	–	–
Cc1ccc(/C=C2/C(=O)N/C(=N\C(=S)Nc3ccc(F)cc3)N2C)o1	146 to 148	–	–
CN1C(=Cc2ccc([N+](=O)[O-])cc2)C(=O)N/C1=N\C(=S)Nc1cccc(Cl)c1 (stereo in doubt) [Compound 4q, 1-(3-Chlorophenyl)-3-[(2E,5Z)-1-methyl-5-(4-nitrobenzylidene)-4-oxoimidazolidin-2-ylidene]thiourea]	166 to 168	8 (≈ 19.2 µM)	–
CN1C(=Cc2ccc(-c3ccccc3[N+](=O)[O-])o2)C(=O)N/C1=N\C(=S)Nc1ccc(F)cc1 (stereo in doubt) [Compound 4v, 1-(4-Fluorophenyl)-3-[(2E,5Z)-1-methyl-5-{[5-(2-nitrophenyl)furan-2-yl]methylidene}-4-oxoimidazolidin-2-ylidene]thiourea]	158 to 160	16 (≈ 34.4 µM)	–
CN1/C(=C\c2ccc(Br)o2)C(=O)N/C1=N\C(=O)Nc1cccc(F)c1 [Compound 4g, 1-{(2E,5Z)-5-[(5-Bromofuran-2-yl)methylidene]-1-methyl-4-oxoimidazolidin-2-ylidene}-3-(3-fluorophenyl)urea]	196 to 198	–	8 (≈ 19.6 µM)
